Entries after “also recorded” stand apart in the source; their conditions may differ.
Experiments:
[1] = molecular target: T1, STING (Mus musculus, UniProt Q3TBT3); assay: Cytokine secretion (ELISA) from DMXAA-activated resolution phase macrophages (zymosan A peritonitis); type: cell-based, mice; design: Mice were injected with zymosan A (1 mg/mouse), and peritoneal cells thereof were recovered after 66 hrs; endogenous in cells; host or cells: F4/80+ peritoneal exudate macrophages from mice with zymosan A peritonitis; conditions: for IL-10 secretion / TNFα secretion: individual compounds 50-5,000 nM + DMXAA 5-10 μM; for Mode of action in resolution phase macrophages: summary heading; for TNFα induced by DMXAA: at 5000 nM
T1 sequence (Q3TBT3 1-378): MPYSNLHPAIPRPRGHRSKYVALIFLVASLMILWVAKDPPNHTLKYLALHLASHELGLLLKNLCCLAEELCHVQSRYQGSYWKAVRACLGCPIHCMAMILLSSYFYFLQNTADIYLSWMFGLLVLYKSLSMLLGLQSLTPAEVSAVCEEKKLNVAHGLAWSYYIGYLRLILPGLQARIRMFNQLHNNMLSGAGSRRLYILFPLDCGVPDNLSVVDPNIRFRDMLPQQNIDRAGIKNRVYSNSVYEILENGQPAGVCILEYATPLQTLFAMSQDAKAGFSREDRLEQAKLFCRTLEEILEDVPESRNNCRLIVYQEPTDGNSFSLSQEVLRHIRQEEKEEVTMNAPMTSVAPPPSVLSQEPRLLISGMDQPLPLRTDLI
Procedure: Mice were injected with zymosan A (1 mg/mouse), and peritoneal cells thereof were recovered after 66 hrs. Exudate macrophages were isolated and incubated (1×10^6 cells in 0.5 mL of culture media) overnight with a premade mixture of the individual compounds in clusters 1 and 9 (5,000 nM; 5A and 5C), or the individual compounds (500-5,000 nM), or vehicle and DMXAA (5-10 μM). Next, culture supernatants were collected and TNFα (5A-5B) or IL-10 (5C-5D) levels were determined by standard ELISA (Biolegend).
(§1) Splenocytes were isolated from the spleens of unchallenged C57BL/6 WT or STING-KO mice by meshing against a grid. Peritoneal macrophages were isolated from mice undergoing peritonitis for 66 hr by washing with 5 ml PBS. The cellular exudate was stained with phycoerythrin (PE)-conjugated anti-F4/80 antibodies (bioLegend, CA, USA) and macrophages were isolated using magnetic beads (STEMCELL Technologies Inc, Vancouver, Canada). Isolated splenocytes or macrophages (0.5-1×10^6 cells per well) were incubated with 50-5,000 nM of individual substances or pooled clusters thereof. Then, the cells were treated with vehicle or 5-10 μM DMXAA (Cayman Chemical, MI, USA) to activate STING. After 24 hr, culture supernatants were collected and evaluated for levels of: TNFα, IFN-β and/or IL-10 using, standard ELISA (BioLegend, CA, USA).
To use a more physiological setting, macrophages were isolated from zymosan A-induced peritonitis and treated with the compounds alone (5,000 nM) or compounds (50-5,000 nM) with DMXAA, or DMXAA alone.

[2] = system: LPS-activated splenocytes; assay: Cytokine secretion (ELISA) from LPS-activated splenocytes; type: cell-based, C57BL/6 mice; conditions: for LPS-induced cytokine secretion / IFN-beta secretion / IL-10 secretion / TNFα secretion: 5,000 nM + LPS 1 μg/ml; for IFN-beta secretion / IL-10 secretion / TNFα secretion: overnight
Procedure: FIGS. 4A-4C include vertical bar graphs showing that compounds 5.9 and 7.9 inhibit TNFα but promote IL-10 and IFN-beta secretion from lipopolysaccharides (LPS)-activated splenocytes. Splenocytes were recovered from C57BL/6 WT female mice and incubated (1×10^6 cells in 0.5 mL of culture media) overnight with the individual compounds from cluster 9 (5,000 nM) or vehicle and LPS (1 μg/ml). Next, culture supernatants were collected and TNFα (4A), IL-10 (4B), or IFN-beta (4C) levels were determined by standard ELISA.
STING was previously shown to be essential for LPS-induced IRF3 activation and IFN-β production. Therefore, further examination of whether the putative STING antagonists affect LPS-induced cytokine production was carried out.

[3] = molecular target: T1, STING; assay: Cytokine secretion (ELISA) from DMXAA-activated splenocytes; type: cell-based, C57BL/6 mice; design: Splenocytes were recovered from C57BL/6 WT female mice; endogenous in cells; host or cells: primary splenocytes of C57BL/6 mice; conditions: for Mode of action on STING (overall): summary over various cell types, DMXAA stimulation; for STING inhibition (ranking): at 5,000 nM, resting splenocytes
Procedure: FIGS. 1A-1B include bar graphs showing that Cluster 1 and 9 inhibit tumor necrosis factor alpha (TNFα) while only cluster 1 promotes IL-10 secretion from resting splenocytes activated by the selective STING agonist DMXAA. Splenocytes were recovered from C57BL/6 WT or STING^−/− female mice and were incubated (1×10^6 cells in 0.5 mL of culture media) overnight with a premade mixture of the individual compounds in each cluster (5-500 nM) or vehicle, and DMXAA (10 μM). Next, culture supernatants were collected and TNFα(1A) or IL-10 (1B) levels were determined by standard enzyme-linked immunosorbent assay ELISA (Biolegend).
(§2) FIGS. 2A-2D include graphs showing that compounds 5.9 and 7.9 inhibit TNFα and IL-10 secretion from DMXAA-activated splenocytes. Splenocytes were recovered from C57BL/6 WT female mice and incubated (1×10^6 cells in 0.5 mL of culture media) overnight with the individual compounds from cluster 9 (50-5,000 nM) or vehicle and DMXAA (5-10 μM; 2A-2B) or at 5,000 nM without DMXAA (2C-2D). Next, culture supernatants were collected and TNFα (2A, and 2C) or IL-10 (2B, and 2D) levels were determined by standard ELISA. In 2A-2B, black horizontal line indicates secretion level from vehicle-treated cells.
FIGS. 3A-3H include graphs and an image showing that compounds 2.1, 4.1, and 6.1 inhibit TNFα but promote IL-10 and IFN-beta secretion from DMXAA-activated splenocytes. Splenocytes were recovered from C57BL/6 WT female mice and incubated (1×10^6 cells in 0.5 mL of culture media) overnight with the individual compounds from cluster 1 (50-5,000 nM) or vehicle and DMXAA (10 μM; 3A, 3C, and 3E) or at 5,000 nM without DMXAA (3B, 3D, and 3F). Next, culture supernatants were collected and TNFα (3A-3B), IL-10 (3C-3D), or IFN-beta (3E-3F) levels were determined by standard ELISA. In 3A, 3C, and 3E, black horizontal line indicates secretion level from vehicle-treated cells. (3G-3H) Biased STING agonists (BiSTs) enhance DMXAA-induced STING signaling. Splenocytes were treated with 25 μg/ml DMXAA and 50 nM of compound 2.1 for 1-4 hr (3G). Then, the cells were analyzed by immunoblotting for phosphorylated STING, TBK-1, IRF3, and NF-kB, or their unphosphorylated controls, or actin as a loading control. Densitometry analysis for phosphorylated STING (p-STING) and STING proteins (3H) is also shown. Results are representative (3G) or mean±SEM (3H) from 3 repeats. One-way ANOVA, and Tukey HSD test *P<0.05.
as §1
To test which cluster(s) included compounds that modulate STING-mediated cytokine production, wild-type (WT) or STING knockout (−/−) splenocytes were incubated with the selective murine STING agonist DMXAA alone or with 5-500 nM of the pooled individual compounds in each cluster as indicated.
Next, the individual compounds in clusters 1 and 9 were tested at 50-5,000 nM. The first experiment was performed in resting splenocytes as detailed above.

[4] = molecular target: T1, STING; assay: Cytokine secretion (ELISA) from splenocytes without DMXAA; type: cell-based, C57BL/6 mice; design: Splenocytes were recovered from C57BL/6 WT female mice; endogenous in cells; host or cells: primary splenocytes of C57BL/6 mice; conditions: 5,000 nM
Procedure: as §2
FIGS. 3A-3H include graphs and an image showing that compounds 2.1, 4.1, and 6.1 inhibit TNFα but promote IL-10 and IFN-beta secretion from DMXAA-activated splenocytes. […] Next, culture supernatants were collected and TNFα (3A-3B), IL-10 (3C-3D), or IFN-beta (3E-3F) levels were determined by standard ELISA. […] Then, the cells were analyzed by immunoblotting for phosphorylated STING, TBK-1, IRF3, and NF-kB, or their unphosphorylated controls, or actin as a loading control. […]
Splenocytes were isolated from the spleens of unchallenged C57BL/6 WT or STING-KO mice by meshing against a grid. […] After 24 hr, culture supernatants were collected and evaluated for levels of: TNFα, IFN-β and/or IL-10 using, standard ELISA (BioLegend, CA, USA). […]

[5] = individual compounds 50-5,000 nM + DMXAA 5-10 μM, overnight

Q: Which IL-10 secretion [1] does the source give for `O=C(CCc1c[nH]c2ccccc12)N1CCOc2ccc(CN3CCN(c4ccccn4)CC3)cc2C1` [Compound 7.9, 4-[3-(1H-indol-3-yl)propanoyl]-7-{[4-(2-pyridinyl)-1-piperazinyl]methyl}-2,3,4,5-tetrahydro-1,4-benzoxazepine] here?
A: best inhibitor; also recorded: inhibits

Q: And the TNFα secretion [1]?
A: best inhibitor; also recorded: inhibits

Q: And the “Mode of action in resolution phase macrophages” value [1]?
A: Very Efficient STING Inhibitor

Q: What about the LPS-induced cytokine secretion [2] of the same compound?
A: much milder effects

Q: What about the IFN-beta secretion [2] of the same compound?
A: promote

Q: And the IL-10 secretion [2]?
A: promote

Q: What about the TNFα secretion [2] of the same compound?
A: inhibit

Q: What about the IL-10 secretion [3, 5] of the same compound?
A: inhibit

Q: What about the TNFα secretion [3, 5] of the same compound?
A: inhibit

Q: What about the “Mode of action on STING (overall)” value [3] of the same compound?
A: very efficient STING inhibitors

Q: `c1ccc(-n2cccc2CN(Cc2cccnc2)Cc2ccc3c(c2)OCO3)nc1` [Compound 4.1, (1,3-benzodioxol-5-ylmethyl)(pyridin-3-ylmethyl)[(1-pyridin-2-yl-1H-pyrrol-2-yl)methyl]amine] was tested. Which “IL-10 induced by DMXAA” value ([1]; at 500 nM) did it give?
A: enhanced

Q: What about the “IL-10 induced by DMXAA” value ([1]; at 5,000 nM) of the same compound?
A: not

Q: What about the IL-10 secretion [1] of the same compound?
A: selective inducer

Q: What about the “Mode of action in resolution phase macrophages” value [1] of the same compound?
A: Biased Antagonist for TNFα

Q: What about the IL-10 secretion ([4]; without DMXAA) of the same compound?
A: only compound that induced IL-10; also recorded: induces

Q: And the IFN-beta secretion ([3]; individual compounds 50-5,000 nM + DMXAA 10 μM, overnight)?
A: promote

Q: What about the IL-10 secretion [3, 5] of the same compound?
A: induced IL-10 at all concentrations; also recorded: promote

Q: And the TNFα secretion [3, 5]?
A: inhibit

Q: What about the IL-10 secretion ([3]; individual compounds at 5,000 nM + DMXAA) of the same compound?
A: induces

Q: And the “Mode of action on STING (overall)” value [3]?
A: biased agonists; also recorded: most efficient biased agonist

Q: What does the source list for `Cc1ccc(C(=O)Nc2cnn(-c3ccc(C(=O)N4CCC(c5ccc(F)cc5)C4)cc3)c2)c(C)c1` (stereo not shown) [Compound 6.1, N-[1-(4-{[3-(4-fluorophenyl)-1-pyrrolidinyl]carbonyl}phenyl)-1H-pyrazol-4-yl]-2,4-dimethylbenzamide]?
A: IL-10 induced by DMXAA ([1]; at 5,000 nM): enhanced; TNFα induced by DMXAA [1]: enhanced; STING inhibition (ranking) [3]: Best STING Inhibitors; TNFα secretion [3, 5]: doing so at lower concentrations; also recorded: inhibit; Mode of action on STING (overall) [3]: biased agonists

Q: Which results are given for `Cc1ccc2c(-c3cc4c(n(CC5CC5)c3=O)CCN(C(=O)C3=NN(C)C(=O)CC3)C4)cccc2n1` [Compound 5.9, 1-(cyclopropylmethyl)-6-[(1-methyl-6-oxo-1,4,5,6-tetrahydro-3-pyridazinyl)carbonyl]-3-(2-methyl-5-quinolinyl)-5,6,7,8-tetrahydro-1,6-naphthyridin-2(1H)-one]?
A: IL-10 induced by DMXAA ([1]; at 5,000 nM): enhanced; TNFα induced by DMXAA [1]: enhanced; TNFα secretion ([4]; absence of DMXAA stimulation): inhibited; IFN-beta secretion [2]: enhances; also recorded: significant upregulation; also recorded: promote; IL-10 secretion [2]: enhances; also recorded: significant upregulation; also recorded: promote; TNFα secretion [2]: not and reducing and inhibiting and inhibit; Mode of action in LPS-stimulated splenocytes ([2]; summary statement): biased agonist; STING inhibition (ranking) [3]: Best STING Inhibitors; IL-10 secretion [3, 5]: inhibit; TNFα secretion [3, 5]: doing so at lower concentrations; also recorded: best inhibitor; also recorded: inhibit; Mode of action on STING (overall) [3]: very efficient STING inhibitors

Q: For `COCC(=O)N(C)C(Cc1ccc(F)cc1)C1CCN(C(=O)c2ccc(-c3ccccc3)cc2)CC1` (stereo not shown) [Compound 3.1, N-[1-[1-(4-biphenylylcarbonyl)-4-piperidinyl]-2-(4-fluorophenyl)ethyl]-2-methoxy-N-methylacetamide], which TNFα secretion [1] is on record?
A: enhanced TNFα only

Q: With `COc1ccccc1CCN1CCCC(CN(C)C(=O)Cc2cn(C)c3ccccc23)C1` (stereo not shown) [Compound 4.9] as the compound, how does the “STING inhibition (ranking)” value [3] read?
A: Best STING Inhibitors

Q: What about the TNFα secretion [3, 5] of the same compound?
A: doing so at lower concentrations

Q: For `CCOC(=O)N1CCC(NCc2cc3ccc(Cl)cc3n(CCOc3ccccc3)c2=O)CC1` [Compound 6.9, ethyl 4-({[7-chloro-2-oxo-1-(2-phenoxyethyl)-1,2-dihydro-3-quinolinyl]methyl}amino)-1-piperidinecarboxylate], which LPS-induced cytokine secretion [2] is on record?
A: much milder effects
